This note sets out measurements from patent US10702487B2, “Pharmaceutical composition for prevention of diet induced obesity” (FRIMLINE PRIVATE LIMITED, priority 2017, dated 2020).

What all share (format): in vivo, Male Wistar Rats
Assay [1] relates to High fat diet induced obesity model in rat. Description: High fat diet induced obesity model in rat: serum biochemistry. To be noted: HFD-fed rats, 12 weeks, p.o.; for LDL / Total Cholesterol / Triglyceride: mean; for LDL % Decrease / Total Cholesterol % Decrease / Triglyceride % Decrease: versus disease control. On the procedure: (§1) Screening anti-obesity effect of synergistic combination or composition/formulation comprising OEA and other natural ingredients using High fat diet induced obesity model in rat. […] To maintain appropriate conditions, temperature and relative humidity were recorded three times daily. During complete experiment, animals were supplied with the standard certified rat pellet feed (manufactured by VRK Nutritional Solutions, Pune) and drinking water treated by the reverse osmosis ad libitum. […] In order to evaluate the anti-obesity effect, forty-eight (48) male rats were screened and divided into eight groups. For a comparative analysis, the groups were divided as follows: normal control, disease control, treatment groups with individual component, reference standard drug and test composition/formulation of the present invention. […] The animals under consideration were examined for a study period of 12 weeks. Animals in group (G1) were given normal pellet diet, wherein the other groups were on high fat diet. After completion of study for 12 weeks, each group was analyzed in terms of the body weight and other evaluating parameters such as serum biochemistry (triglyceride, total cholesterol and low density lipoprotein cholesterol (LDL), analysis of liver homogenates and histopathology of liver. Obesity is essentially due to an excessive accumulation of the fatty tissues which leads to many diseases, not limited to insulin resistance, diabetes, fatty liver disease, coronary artery disease, hypertension and polycystic ovary syndrome. In obese conditions, the level of total cholesterol, triglyceride and LDL-cholesterol reaches beyond the normal ranges in human beings. Similarly, high fat diet model in rat is universally accepted model to test the efficacy of the drug for the treatment of obesity. In the above experimental procedure, obesity was induced by administration of a high fat diet (HFD) for the period of 12 weeks. For comparison, the normal control group animals were given a normal pellet diet, whereas the remaining groups were fed with the HFD. As a routine experiment, all animals' body weights were observed on weekly basis. Further, various serum biochemistry parameters such as Triglyceride, total cholesterol and LDL-cholesterol were analyzed at the end of the 12-week treatment period. In this regard, at the end of study period, all animals were euthanized and the liver was isolated. The liver homogenate of each individual animal was prepared and subjected for determination of the level of total cholesterol and Triglyceride. Further, part of the liver was used for histopathological investigation purpose.

Assay [2] shares this test system. Description: High fat diet induced obesity model in rat: body weight. Conditions: HFD-fed rats, end of 12 weeks, p.o., mean; for % increase in body weight: in comparison to normal control group; for Body weight: OEA 41, L-Valine 2, Pantethine 31, Orlistat 10 mg/kg. On the procedure: as §1, with “purpose. The primary observation during the experiment was monitoring the body weight of animals. Though the animals were tested weekly for the change in the body weight, an average body weight was measured at the end of 12 weeks, and is tabulated in the Table 2.” for “purpose.”

Assay [3] shares this test system. Description: High fat diet induced obesity model in rat: analysis of liver homogenates. To be noted: liver homogenate, HFD-fed rats, 12 weeks, p.o.; for Total Cholesterol / Triglyceride: mean; for Total Cholesterol % Decrease / Triglyceride % Decrease: versus disease control. On the procedure: as §1

For `CC(C)[C@H](N)C(=O)O` [L-Valine], in assay [1], the LDL turned out to be 55.45 mg/dL, the “Total Cholesterol” value came to 140.00 mg/dL, the Triglyceride was 115.23 mg/dL and the “LDL % Decrease” value is 4.35%. Further, in assay [1], the “Total Cholesterol % Decrease” value is 4.92% and the “Triglyceride % Decrease” value is listed as 6.15%. In assay [2], the “% increase in body weight” value was determined as 22.71% and the Body weight stood at 338.67 gm. In assay [3], the “Total Cholesterol” value was 85.23 mg/dL, the Triglyceride turned out to be 80.02 mg/dL, the “Total Cholesterol % Decrease” value stood at 5.56% and the “Triglyceride % Decrease” value is given as 3.59%.
Regarding `CCCCCCCC/C=C\CCCCCCCC(=O)NCCO` [OEA, Oleoylethanolamide], in assay [1], the LDL came out at 35.54 mg/dL, the “Total Cholesterol” value turned out to be 105.54 mg/dL, the Triglyceride is 100.05 mg/dL and the “LDL % Decrease” value came out at 38.70%. Moreover, in assay [1], the “Total Cholesterol % Decrease” value came to 28.32% and the “Triglyceride % Decrease” value is recorded as 18.51%. In assay [2], the “% increase in body weight” value is given as 12.32% and the Body weight came out at 310.00 gm. For the same compound, in assay [3], the “Total Cholesterol” value is 74.12 mg/dL, the Triglyceride was 59.98 mg/dL, the “Total Cholesterol % Decrease” value stood at 17.87% and the “Triglyceride % Decrease” value was determined as 27.74%.
For the compound `CCCCCCCCCCC[C@@H](C[C@@H]1OC(=O)[C@H]1CCCCCC)OC(=O)[C@H](CC(C)C)NC=O` [Orlistat], in assay [1], the LDL came out at 25.74 mg/dL, the “Total Cholesterol” value came out at 84.27 mg/dL, the Triglyceride is 77.62 mg/dL and the “LDL % Decrease” value is given as 55.60%. Also, in assay [1], the “Total Cholesterol % Decrease” value is 42.77% and the “Triglyceride % Decrease” value was 36.78%. Besides, in assay [2], the “% increase in body weight” value is given as 7.97% and the Body weight stood at 298.00 gm. Also, in assay [3], the “Total Cholesterol” value was found to be 60.33 mg/dL, the Triglyceride is 44.82 mg/dL, the “Total Cholesterol % Decrease” value worked out at 33.15% and the “Triglyceride % Decrease” value is recorded as 46.00%.
